Data reported in patent US9688721B2, “Tubulysin compounds, methods of making and use” (priority 2013, dated 2017).
Where two headings read alike, the source gives them in different places.

How the values were obtained:
H226 lung cancer cells = assay: ATP luminescence assay (CELLTITER-GLO), H226 cells; assay type: cell-based
Experimental: (§1) As controls, doxorubicin and the tubulysin analog Compound A, which contains an acetate group instead of a carbamate group at the Tuv subunit, were used. Compound A can be prepared according to the teachings of Cheng et al. 2011.
(§2) Tumor cell lines were obtained from the American Type Culture Collection (ATCC), P.O. Box 1549, Manassas, Va. 20108, USA, and cultured according to ATCC instructions. Cells were seeded at 1.0×10^3 cells/well in 96-well plates for 3 h for the ATP assays. 1:3 serial dilutions of the compounds were added to the wells. Plates were allowed to incubate for 24 to 72 h. […] The EC50 values—the concentration at which an agent inhibits or reduces cell proliferation by 50%—were determined using PRISM™ software, version 4.0 (GraphPad Software, La Jolla, Calif., USA).

786-O renal cancer cells = assay: ATP luminescence assay (CELLTITER-GLO), 786-O cells; assay type: cell-based
Experimental: as §1, §2

N87 gastric cancer cells = details: ATP luminescence assay
Experimental: as §2

Row | SMILES | EC50 (H226 lung cancer cells; Homo sapiens, NCI-H226) [nM] | EC50 (786-O renal cancer cells; Homo sapiens, 786-0) [nM] | further results
1 | CC[C@H](C)[C@H](NC(=O)[C@H]1CCCCN1C)C(=O)N(C)[C@H](C[C@@H](OC(C)=O)c1nc(C(=O)N[C@@H](Cc2ccccc2)C[C@H](C)C(=O)O)cs1)C(C)C [Compound A, reference compound] | 2.4 | 1.2 | –
2 | CC[C@H](C)[C@H](NC(=O)[C@H]1CCCCN1C)C(=O)N(CCc1ccc(N)cc1)[C@H](C[C@@H](OC(=O)NC)c1nc(C(=O)N[C@@H](Cc2ccccc2)CC(C)C(=O)O)cs1)C(C)C (some centres unmarked) [(I-7)] | 15.4 | 12.5 | –
3 | CC[C@H](C)[C@H](NC(=O)[C@H]1CCCCN1C)C(=O)N(C)[C@H](C[C@@H](OC(=O)Nc1ccccc1)c1nc(C(=O)N[C@@H](Cc2ccc(N)cc2)C[C@H](C)C(=O)O)cs1)C(C)C [Compound 75b] | – | – | EC50 (N87 gastric cancer cells): 0.39 nM
4 | CC[C@H](C)[C@H](NC(=O)[C@H]1CCCCN1C)C(=O)N(C)[C@H](C[C@@H](OC(=O)N(C)C)c1nc(C(=O)N[C@@H](Cc2ccc(N)cc2)C[C@H](C)C(=O)O)cs1)C(C)C [Compound 75c] | – | – | EC50 (N87 gastric cancer cells): 5.4 nM
5 | CCOC(=O)C(C)C[C@H](Cc1ccccc1)NC(=O)c1csc([C@@H](C[C@H](C(C)C)N(CCc2ccc(N)cc2)C(=O)[C@@H](NC(=O)[C@H]2CCCCN2C)[C@@H](C)CC)OC(=O)NC)n1 (some centres unmarked) [(I-5)] | 19.5 | 22.9 | –
6 | COc1cccc2c1C(=O)c1c(O)c3c(c(O)c1C2=O)C[C@@](O)(C(=O)CO)C[C@@H]3O[C@H]1C[C@H](N)[C@H](O)[C@H](C)O1 [doxorubicin, reference compound] | – | – | EC50 (H226 lung cancer cells; Homo sapiens, NCI-H226, H226 lung cancer cells, ATP luminescence assay, read-out: EC50): 115 nM; EC50 (786-O renal cancer cells; Homo sapiens, 786-0, 786-O renal cancer cells, ATP luminescence assay, read-out: EC50): 68.9 nM
7 | CC[C@H](C)[C@H](NC(=O)[C@H]1CCCCN1C)C(=O)N(COC(=O)CC(C)C)[C@H](C[C@@H](OC(C)=O)c1nc(C(=O)N[C@@H](Cc2ccccc2)C[C@H](C)C(=O)O)cs1)C(C)C [tubulysin D, reference compound] | – | – | EC50 (H226 lung cancer cells; H226 lung cancer cells, ATP luminescence assay, read-out: EC50): 0.05 nM; EC50 (786-O renal cancer cells; 786-O renal cancer cells, ATP luminescence assay, read-out: EC50): 0.02 nM
8 | CC[C@H](C)[C@H](NC(=O)[C@H]1CCCCN1C)C(=O)N(CCc1ccc(N)cc1)[C@H](C[C@@H](OC(=O)NC)c1nc(C(=O)N[C@@H](Cc2ccccc2)CC(C)C(=O)OC)cs1)C(C)C (some centres unmarked) [(I-6)] | 9.9 | 22.8 | –
